From ChEMBL document CHEMBL1156327, “Synthesis and biological evaluation of anti-1-amino-2-[18F]fluoro-cyclobutyl-1-carboxylic acid (anti-2-[18F]FACBC) in rat 9L gliosarcoma” (Bioorg Med Chem Lett, 2010)
Each block holds one compound with its values, some of them ahead of it.

Columns and labels:
[1] = Ratio of drug level in Fisher 344 rat brain to rat 9L tumor cells implanted in Fisher 344 rat after 60 mins; format: ADME, cell-based; conditions: 1 h
[2] = Drug uptake in rat 9L cells xenografted Fisher 344 rat brain measured per gram of tissue; format: ADME, cell-based; conditions: Fischer 344, rat, read-out: Drug uptake
[3] = Ratio of drug level in Fisher 344 rat brain to rat 9L tumor cells implanted in Fisher 344 rat after 30 mins; format: ADME, cell-based; conditions: 0.5 h
[4] = Ratio of drug level in Fisher 344 rat brain to rat 9L tumor cells implanted in Fisher 344 rat after 15 mins; format: ADME, cell-based; conditions: 0.25 h
[5] = Drug uptake in rat 9L tumor implanted in Fischer 344 rat after 30 mins relative to control; format: ADME, Neoplasm; conditions: read-out: Drug uptake
[6] = Drug uptake in rat 9L tumor implanted in Fischer 344 rat after 15 mins relative to control; format: ADME, Neoplasm; conditions: read-out: Drug uptake
9L = experiment: Cellular uptake in rat 9L cells after 30 mins measured per 0.5 million cells; format: ADME, cell-based; conditions: 0.5 h
[7] = Ratio of drug level in Fisher 344 rat brain to rat 9L tumor cells implanted in Fisher 344 rat after 120 mins; format: ADME, cell-based; conditions: 2 h
[8] = Drug uptake in rat 9L tumor implanted in Fischer 344 rat after 120 mins relative to control; format: ADME, Neoplasm; conditions: read-out: Drug uptake
[9] = Drug uptake in rat 9L tumor implanted in Fischer 344 rat after 60 mins relative to control; format: ADME, Neoplasm; conditions: read-out: Drug uptake

Ratio [1]: 14
tissue uptake [2]: 0.04 %ID/g
Ratio [3]: 17
Ratio [4]: 12
tissue uptake at 0.5 h [5]: 0.66 %ID/g
tissue uptake at 0.25 h [6]: 0.51 %ID/g
Drug uptake (9L): 3.3%
Ratio [7]: 26
tissue uptake at 2 h [8]: 0.6 %ID/g
tissue uptake at 1 h [9]: 0.65 %ID/g
Compound: N[C@@]1(C(=O)O)CC[C@@H]1[18F]

Compound: N[C@]1(C(=O)O)C[C@@H](C[18F])C1
Ratio [3]: 8.9

Compound: N[C@]1(C(=O)O)C[C@H](C[18F])C1
Ratio [3]: 6.9

Ratio [3]: 7.6
Compound: N[C@]1(C(=O)O)C[C@H]([18F])C1

Ratio [3]: 6.6
Compound: N[C@]1(C(=O)O)C[C@@H]([18F])C1 [FLUCICLOVINE F18]
